Laboratory results reported in publication PMC5061733, “SpyB, a Small Heme-Binding Protein, Affects the Composition of the Cell Wall in Streptococcus pyogenes” (Frontiers in Cellular and Infection Microbiology, 2016).
Where two headings read alike, the source gives them in different places.

Legend:
[1] = target: T1, SpyB (synthetic SpyB peptide); assay: tryptophan fluorescence quenching; assay type: binding, Streptococcus pyogenes; conditions: 5 μM SpyB, 20 mM HEPES, 100 mM NaCl, 1 mM DTT, pH 7.5, 20°C
T1 construct: chemically synthesized SpyB peptide (GenScript); SpyB is 35 residues; no tag mentioned
Text: tryptophan fluorescence quenching on SpyB (synthetic SpyB peptide)

[2] = target: MBP-SpyB; conditions: read-out: Hemin, KD; 2.5 μM (Figure 5D; Methods: 5 μM) heme-free monomer, 20 mM HEPES, 100 mM NaCl, 1 mM DTT, pH 7.5, 20°C

Row | SMILES | Kd ([1]; read-out: Hemin, KD) | Kd [2] | Kd ([1]; read-out: Protoporphyrin IX, KD)
1 | C=CC1=C(C)C2=Cc3c(C=C)c(C)c4[n]3[Fe]([Cl])[n]3c(c(C)c(CCC(=O)O)c3=CC3=NC(=C4)C(C)=C3CCC(=O)O)=CC1=N2 [hemin] | 2.6 µM | 12 µM | 
2 | C=CC1=C(C)c2cc3[nH]c(cc4nc(cc5[nH]c(cc1n2)c(C)c5CCC(=O)O)C(CCC(=O)O)=C4C)c(C)c3C=C [protoporphyrin IX] |  |  | 4.9 µM
